Test results: publication PMC10617776, “Bi-steric mTORC1 inhibitors induce apoptotic cell death in tumor models with hyperactivated mTORC1” (The Journal of Clinical Investigation, 2023)

Assays:
[1] = molecular target: T1, mTOR (mTORC1 and mTORC2) (Homo sapiens, UniProt P42345); assay: immunoblot of mTORC1/mTORC2 substrate phosphorylation in cells ([…] h treatment); assay type: cell-based
T1 construct: endogenous mTOR in HCV29 TSC1-null cells

[2] = tested on: T2, KTP-269-3C4 Tsc1-; assay: cells; set-up: cell proliferation by crystal violet staining, absorbance 540 nm; details: 72 h
T2 construct: Tsc1-null

[3] = tested on: T3, 97-1 TSC1+; assay: cells; set-up: cell proliferation by crystal violet staining, absorbance 540 nm; details: 72 h
T3 construct: TSC1 add-back

[4] = tested on: T4, 105K Tsc2+; assay: cells; set-up: cell proliferation by crystal violet staining, absorbance 540 nm; details: 72 h
T4 construct: Tsc2 add-back

[5] = tested on: T5, 705 Tsc2-; assay: cells; set-up: cell proliferation by crystal violet staining, absorbance 540 nm; details: 72 h
T5 construct: Tsc2-null

[6] = tested on: T6, RT4 TSC1-; assay: cells; set-up: cell proliferation by crystal violet staining, absorbance 540 nm; details: 72 h
T6 construct: TSC1-null

[7] = tested on: T7, 105K Tsc2-; assay: cells; set-up: cell proliferation by crystal violet staining, absorbance 540 nm; details: 72 h
T7 construct: Tsc2-null

[8] = tested on: T8, 857T Tsc1+; assay: cells; set-up: cell proliferation by crystal violet staining, absorbance 540 nm; details: 72 h
T8 construct: Tsc1 wild-type

[9] = tested on: T9, 855T Tsc1-; assay: cells; set-up: cell proliferation by crystal violet staining, absorbance 540 nm; details: 72 h
T9 construct: Tsc1-null

[10] = tested on: T10, 634T Tsc1-; assay: cells; set-up: cell proliferation by crystal violet staining, absorbance 540 nm; details: 72 h
T10 construct: Tsc1-null

[11] = tested on: T11, TTJ Tsc2+; assay: cells; set-up: cell proliferation by crystal violet staining, absorbance 540 nm; details: 72 h
T11 construct: Tsc2 add-back

[12] = tested on: T12, KTP-267-2B8 Tsc1-; assay: cells; set-up: cell proliferation by crystal violet staining, absorbance 540 nm; details: 72 h
T12 construct: Tsc1-null

[13] = tested on: T13, HCV29 TSC1+; assay: cells; set-up: cell proliferation by crystal violet staining, absorbance 540 nm; details: HCV-29, 72 h
T13 construct: TSC1 add-back
Protocol: (§1) The effect of the compounds on cell proliferation was measured by crystal violet staining. Cells were plated in 96-well plates at a density of 500–2,000 cells (sextuples per condition). The next day, cells were treated with concentrations (0–100 nM) prepared by serial dilution. After 3 days of treatment, cells were fixed by 10% formalin for 10 minutes at room temperature. 0.05% crystal violet solution was added and incubated for 15 minutes at room temperature. Absorbance was read using Synergy HT (BioTek) at 540 nm. The inhibition curves and IC50 values were calculated by GraphPad Prism 9.0. TSC1-null HCV29 (BLCA cell line) and its TSC1–add-back derivative were treated with rapamycin, MLN0128, and bi-steric mTORC1 inhibitors.

[14] = tested on: T14, HCV29 TSC1-; assay: cells; set-up: cell proliferation by crystal violet staining, absorbance 540 nm; details: HCV-29, 72 h
T14 construct: TSC1-null
Protocol: as §1

[15] = tested on: T15, KTP-267-1B1 Tsc1-; assay: cells; set-up: cell proliferation by crystal violet staining, absorbance 540 nm; details: 72 h
T15 construct: Tsc1-null
Protocol: as §1

[16] = tested on: T16, SNU886 TSC2+; assay: cells; set-up: cell proliferation by crystal violet staining, absorbance 540 nm; details: SNU-886, 72 h
T16 construct: TSC2 add-back
Protocol: as §1

[17] = tested on: T17, 705 TSC2+; assay: cells; set-up: cell proliferation by crystal violet staining, absorbance 540 nm; details: 72 h
T17 construct: TSC2 add-back

[18] = tested on: T18, 97-1 TSC1-; assay: cells; set-up: cell proliferation by crystal violet staining, absorbance 540 nm; details: 72 h
T18 construct: TSC1-null

[19] = tested on: T19, TTJ Tsc2-; assay: cells; set-up: cell proliferation by crystal violet staining, absorbance 540 nm; details: 72 h
T19 construct: Tsc2-null

immunoblot of mTORC1/mTORC2 substrate phosphorylation in cells (4 h treatment) [1]: 10 to 30 nM
IC50 [16]: 44.7 nM
Structure (SMILES): CC(C)n1nc(-c2ccc3oc(N)nc3c2)c2c(N)ncnc21 [MLN0128]
IC50 [2]: 26.9 nM
IC50 [3]: 46.8 nM
IC50 [4]: 79.4 nM
IC50 [5]: 50.1 nM
IC50 [6]: 63.1 nM
IC50 [7]: 41.7 nM
IC50 [8]: 70.8 nM
IC50 [9]: 31.6 nM
IC50 [10]: 60.3 nM
IC50 [11]: 50.1 nM
IC50 [12]: 28.2 nM
IC50 [13]: 35.5 nM
IC50 [14]: 31.6 nM
IC50 [15]: 44.7 nM
IC50 [17]: 50.1 nM
IC50 [18]: 39.8 nM
IC50 [19]: 63.1 nM
